Data published in patent publication US20260191924A1, “METHODS AND COMPOSITIONS FOR TREATING VIRAL INFECTIONS” (DST Pharma, Inc., priority 2020, published 2026).

Columns and labels:
FCV F9 [1] = experiment: Effect of 5,7,3′,4′-tetrarydroxyflavon-3-ol C4-C8 dimers on FCV F9 infection of CRFK cells; assay type: cell-based, feline calicivirus (cat kidney CRFK cells); conditions: 0.1% dimers, added before, with or after virus (FIG. 6)
Method: 50 μl of virus was added to 450 μl complete EMEM to create a 10^−1 viral mix. A series of dilutions made from this mix up to 10^−8. Virus was added to all wells by loading 250 μl from each dilution to the designated wells. 3 well repeats were prepared. Purified 5, 7, 3′, 4′-tetrarydroxyflavon-3-ol C4-C8 dimers was diluted to 0.1% in complete EMEM.
For experiments in which 5, 7, 3′, 4′-tetrarydroxyflavon-3-ol C4-C8 dimers was added before the virus, 5, 7, 3′, 4′-tetrarydroxyflavon-3-ol C4-C8 dimers was diluted to 0.1% using MM (1:100), added to cells and incubated for 1 hour before the virus was added to the cells.
For experiments in which 5, 7, 3′, 4′-tetrarydroxyflavon-3-ol C4-C8 dimers was added simultaneously with the virus, the virus was diluted in 0.1% purified complete EMEM, added to wells, incubated for 1 hour, then complete EMEM was added to the wells.
For experiments in which 5, 7, 3′, 4′-tetrarydroxyflavon-3-ol C4-C8 dimers was added after viral infection, viral dilutions were added to wells, incubated for 1 hour, 0.1% complete EMEM was added to the wells. The medium was changed to complete EMEM after 60 minutes.

FCV F9 [2] = experiment: Effect of quercetin on FCV F9 infection of CRFK cells; assay type: cell-based, feline calicivirus (cat kidney CRFK cells); conditions: 0.1% quercetin, added 1 hour before, with, or 1 hour after virus (FIG. 4)
Method: 50 μl of the virus was added to 450 μl HBSS making a 10^−1 viral titer mix. A series of dilutions made from this mix up to 10^−8. Virus was added to all wells by loading 250 μl from each dilution to the designated wells, same as for viral titer. 3 well repeats were prepared. Quercetin was prepared at 10% quercetin in DMSO.
For experiments in which quercetin was added before viral infection, the quercetin was diluted to 0.1% using MM (1:100), added to cells, and incubated for 1 hour.
For experiments in which quercetin was added at the same time as viral infection, the virus was diluted in 0.1% quercetin MM/DMSO, added to wells, incubated for 1 hour, and then MM was added.
For experiments in which quercetin was added after viral infection, viral dilutions were added to the cells, incubated for 1 hour, then 0.1% quercetin in MM/DMSO was added. The medium was changed to MM after 60 minutes.

Oc1cc(O)c2c(c1)OC(c1ccc(O)c(O)c1)C(O)C2c1c(O)cc(O)c2c1OC(c1ccc(O)c(O)c1)C(O)C2 (centres unmarked) [5,7, 3′, 4′-tetrahydroxyflavan-3-ol C4-C8 dimers]
effect against FCV infection (FCV F9 [1]): effective against FCV infection comparable to quercetin and better than rutin

O=c1c(O)c(-c2ccc(O)c(O)c2)oc2cc(O)cc(O)c12 [quercetin, 3, 3′, 4′, 5,7-pentahydroxyfivanone]
inhibition of FCV F9 infection of CRFK cells (FCV F9 [2]): significantly inhibited
